# Assay results taken from ChEMBL document CHEMBL4825757, “Optimization of 4,6-Disubstituted Pyrido[3,2-d]pyrimidines as Dual MNK/PIM Inhibitors to Inhibit Leukemia Cell Growth” (J Med Chem, 2021).
# Activity calls are given as the source filed them. The calls are words filed in the database; no cut-off is given here.
# What was measured:
# [1] = target: T1, MAP kinase-interacting serine/threonine-protein kinase 1 (Homo sapiens, UniProt Q9BUB5); test: Inhibition of MKN1 (unknown origin) in presence of ATP by HTRF assay
# Target sequence in this assay (Q9BUB5 whole entry): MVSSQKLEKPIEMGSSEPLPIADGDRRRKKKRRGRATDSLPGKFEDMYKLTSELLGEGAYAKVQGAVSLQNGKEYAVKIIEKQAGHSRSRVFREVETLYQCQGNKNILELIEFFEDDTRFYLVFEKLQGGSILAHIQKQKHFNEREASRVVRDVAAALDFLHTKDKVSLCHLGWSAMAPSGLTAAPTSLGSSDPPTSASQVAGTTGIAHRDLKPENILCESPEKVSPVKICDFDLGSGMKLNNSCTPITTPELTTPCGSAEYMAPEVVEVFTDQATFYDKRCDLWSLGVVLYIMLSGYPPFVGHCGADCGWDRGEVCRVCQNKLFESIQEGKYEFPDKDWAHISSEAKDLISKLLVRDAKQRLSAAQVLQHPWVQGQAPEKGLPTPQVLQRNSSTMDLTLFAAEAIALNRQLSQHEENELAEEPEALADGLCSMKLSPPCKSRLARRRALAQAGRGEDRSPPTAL
# [2] = target: MAP kinase-interacting serine/threonine-protein kinase 2 (Homo sapiens, UniProt Q9HBH9); test: Inhibition of MKN2 (unknown origin) in presence of ATP by HTRF assay
# [3] = target: T1, MAP kinase-interacting serine/threonine-protein kinase 1; test: Inhibition of MKN1 (unknown origin) at 1 uM in presence of ATP by HTRF assay
# Target sequence in this assay (Q9BUB5 whole entry, looked up): as the sequence (Q9BUB5 whole entry) above
# MOLM-13 [4] = test: Antiproliferative activity against human MOLM13 cells assessed as reduction of cell viability incubated for 72 hrs by trypan blue staining based cell counting analysis; type: functional
# K562 [5] = test: Antiproliferative activity against human K562 cells assessed as reduction of cell viability incubated for 72 hrs by trypan blue staining based cell counting analysis; type: functional
# MOLM-13 [6] = test: Downregulation of mcl-1 levels in human MOLM-13 cells at 1 to 2 uM incubated for 12 hrs by western blot analysis; type: functional, cell-based; details: dose 1-2 µM
# [7] = target: MAP kinase-interacting serine/threonine-protein kinase 1/2 (Homo sapiens) (UniProt Q9HBH9+Q9BUB5); test: Inhibition of MNK1/MNK2 in human MOLM-13 cells assessed as reduction in eIF4E phosphorylation at 1 to 2 uM incubated for 12 hrs by western blot analysis; type: cell-based; details: dose 1-2 µM
# [8] = target: T2, Serine/threonine-protein kinase PIM (Homo sapiens) (UniProt P11309+Q9P1W9+Q86V86); test: Inhibition of PIM in human MOLM-13 cells assessed as reduction of BAD phosphorylation at 1 to 2 uM incubated for 12 hrs by western blot analysis; type: cell-based; details: dose 1-2 µM
# MOLM-13 [9] = test: Induction of cell cycle arrest in human MOLM-13 cells assessed as sub-G1 phase at 1 uM incubated for 12 hr by propidium iodide based flow cytometry analysis (Rvb= 4.78%); type: functional
# MOLM-13 [10] = test: Induction of cell cycle arrest in human MOLM-13 cells assessed as G1 phase at 1 uM incubated for 12 hr by propidium iodide based flow cytometry analysis (Rvb= 51.29%); type: functional
# MOLM-13 [11] = test: Induction of apoptosis in human MOLM-13 cells assessed as early apoptotic cells at 1 uM incubated for 12 hrs by annexin-V and propidium iodide staining based flow cytometry analysis (reference value: 5.40%); type: functional
# MOLM-13 [12] = test: Induction of cell cycle arrest in human MOLM-13 cells assessed as sub-G1 phase at 2 uM incubated for 12 hr by propidium iodide based flow cytometry analysis (Rvb= 4.78%); type: functional
# MOLM-13 [13] = test: Induction of apoptosis in human MOLM-13 cells assessed as late apoptotic cells at 1 uM incubated for 12 hrs by annexin-V and propidium iodide staining based flow cytometry analysis (reference value: 3.03%); type: functional
# MOLM-13 [14] = test: Downregulation of c-myc levels in human MOLM-13 cells at 1 to 2 uM incubated for 12 hrs by western blot analysis; type: functional, cell-based; details: dose 1-2 µM
# MOLM-13 [15] = test: Induction of apoptosis in human MOLM-13 cells assessed as early apoptotic cells at 2 uM incubated for 12 hrs by annexin-V and propidium iodide staining based flow cytometry analysis (reference value: 5.40%); type: functional
# K562 [16] = test: Downregulation of cyclin-D1 levels in human K562 cells at 1 to 2 uM incubated for 24 hrs by western blot analysis; type: functional, cell-based; details: dose 1-2 µM
# MOLM-13 [17] = test: Downregulation of cyclin-D1 levels in human MOLM-13 cells at 1 to 2 uM incubated for 12 hrs by western blot analysis; type: functional, cell-based; details: dose 1-2 µM
# K562 [18] = test: Downregulation of c-myc levels in human K562 cells at 1 to 2 uM incubated for 24 hrs by western blot analysis; type: functional, cell-based; details: dose 1-2 µM
# MOLM-13 [19] = test: Induction of apoptosis in human MOLM-13 cells assessed as necrotic cells at 2 uM incubated for 12 hrs by annexin-V and propidium iodide staining based flow cytometry analysis (reference value: 0.06%); type: functional
# MOLM-13 [20] = test: Induction of apoptosis in human MOLM-13 cells assessed as live cells at 1 uM incubated for 12 hrs by annexin-V and propidium iodide staining based flow cytometry analysis (reference value: 91.49%); type: functional
# MOLM-13 [21] = test: Induction of cell cycle arrest in human MOLM-13 cells assessed as G1 phase at 2 uM incubated for 12 hr by propidium iodide based flow cytometry analysis (Rvb= 51.29%); type: functional
# MOLM-13 [22] = test: Induction of apoptosis in human MOLM-13 cells assessed as live cells at 2 uM incubated for 12 hrs by annexin-V and propidium iodide staining based flow cytometry analysis (reference value: 91.49%); type: functional
# MOLM-13 [23] = test: Induction of apoptosis in human MOLM-13 cells assessed as necrotic cells at 1 uM incubated for 12 hrs by annexin-V and propidium iodide staining based flow cytometry analysis (reference value: 0.06%); type: functional
# HL-60 = test: Antiproliferative activity against human HL-60 cells assessed as reduction of cell viability incubated for 72 hrs by trypan blue staining based cell counting analysis; type: functional
# MOLM-13 [24] = test: Induction of apoptosis in human MOLM-13 cells assessed as late apoptotic cells at 2 uM incubated for 12 hrs by annexin-V and propidium iodide staining based flow cytometry analysis (reference value: 3.03%); type: functional
# [25] = target: T2, Serine/threonine-protein kinase PIM (Homo sapiens); test: Inhibition of PIM in human MOLM-13 cells assessed as reduction in phosphorylated 4EBP1 at 1 to 2 uM incubated for 12 hrs by western blot analysis; type: cell-based; details: dose 1-2 µM
# K562 [26] = test: Downregulation of mcl-1 levels in human K562 cells at 1 to 2 uM incubated for 24 hrs by western blot analysis; type: functional, cell-based; details: dose 1-2 µM
# [27] = Metabolic stability in rat liver microsomes assessed as half life preincubated for 10 mins followed by NADPH addition and further incubated upto 60 mins by LC-MS/MS analysis; type: ADME, Microsome; details: time <=70 min
# [28] = Intrinsic clearance in human liver microsomes preincubated for 10 mins followed by NADPH addition and further incubated upto 60 mins by LC-MS/MS analysis; type: ADME, Microsome; details: time <=70 min, read-out: CLH
# [29] = Intrinsic clearance in rat liver microsomes preincubated for 10 mins followed by NADPH addition and further incubated upto 60 mins by LC-MS/MS analysis; type: ADME, Microsome; details: time <=70 min, read-out: CLH
# Sequence of MAP kinase-interacting serine/threonine-protein kinase 2 (Q9HBH9 whole entry): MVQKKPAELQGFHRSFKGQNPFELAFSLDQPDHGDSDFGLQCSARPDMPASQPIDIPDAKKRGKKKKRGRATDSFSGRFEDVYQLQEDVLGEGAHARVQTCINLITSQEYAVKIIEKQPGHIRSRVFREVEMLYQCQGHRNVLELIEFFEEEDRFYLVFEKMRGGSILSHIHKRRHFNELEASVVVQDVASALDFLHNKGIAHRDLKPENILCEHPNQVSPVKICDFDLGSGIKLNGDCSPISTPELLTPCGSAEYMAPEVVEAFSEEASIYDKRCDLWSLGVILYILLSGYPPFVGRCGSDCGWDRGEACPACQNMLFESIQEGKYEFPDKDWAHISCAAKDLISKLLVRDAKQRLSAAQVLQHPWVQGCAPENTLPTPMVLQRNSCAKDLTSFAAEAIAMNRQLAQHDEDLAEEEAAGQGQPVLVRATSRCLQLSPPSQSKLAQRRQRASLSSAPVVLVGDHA
# T2 sequence (P11309 whole entry, looked up): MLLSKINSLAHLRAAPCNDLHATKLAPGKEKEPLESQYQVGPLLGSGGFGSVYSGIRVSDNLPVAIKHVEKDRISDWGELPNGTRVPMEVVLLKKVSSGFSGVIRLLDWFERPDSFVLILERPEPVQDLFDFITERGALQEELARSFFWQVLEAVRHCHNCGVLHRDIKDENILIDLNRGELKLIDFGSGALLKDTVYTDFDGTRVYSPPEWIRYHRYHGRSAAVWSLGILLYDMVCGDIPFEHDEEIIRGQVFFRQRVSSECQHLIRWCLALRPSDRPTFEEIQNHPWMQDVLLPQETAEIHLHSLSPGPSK
# T2 sequence (Q9P1W9 whole entry, looked up): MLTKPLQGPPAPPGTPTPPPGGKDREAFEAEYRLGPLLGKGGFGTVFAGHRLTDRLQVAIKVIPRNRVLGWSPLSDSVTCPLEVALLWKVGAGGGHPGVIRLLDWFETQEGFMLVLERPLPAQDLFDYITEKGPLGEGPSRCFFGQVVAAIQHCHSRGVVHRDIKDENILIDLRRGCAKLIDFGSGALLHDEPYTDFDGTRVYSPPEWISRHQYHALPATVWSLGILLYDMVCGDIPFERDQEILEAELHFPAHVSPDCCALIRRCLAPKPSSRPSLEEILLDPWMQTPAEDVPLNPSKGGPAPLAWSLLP
compound,measurement,setting,value
CCCNC(=O)c1oc2ccc(Nc3ncnc4ccc(Cl)nc34)cc2c1C,IC50,[1],> 10000 nM
same,IC50,[2],1900 nM
O=C(c1ccc(-c2ccc3ncnc(Nc4ccc(C(F)(F)F)cc4)c3n2)cc1)N1CCNCC1,inhibition,[3],0%
same,GI50,MOLM-13 [4],2670 nM
same,IC50,[2],41 nM
Cc1ccc(Nc2ncnc3ccc(-c4ccc(C(=O)N5CCNCC5)cc4)nc23)cc1,inhibition,[3],12%
same,GI50,MOLM-13 [4],3540 nM
same,IC50,[2],62 nM
COc1cc(Nc2ncnc3ccc(-c4ccc(C(=O)N5CCNCC5)cc4)nc23)ccc1F,inhibition,[3],90%
same,IC50,[1],1 nM
same,GI50,MOLM-13 [4],2850 nM
same,IC50,[2],25 nM
O=C(c1ccc(-c2ccc3ncnc(Nc4ccc(O)cc4)c3n2)cc1)N1CCNCC1,inhibition,[3],86%
same,IC50,[1],8.5 nM
same,GI50,MOLM-13 [4],11200 nM
same,IC50,[2],41 nM
CN(C)C(=O)c1cccc(C#Cc2ccccc2Nc2ncnc3ccc(Cl)nc23)c1,IC50,[1],> 10000 nM
same,IC50,[2],> 10000 nM
O=C(c1cccc(C#Cc2ccccc2Nc2ncnc3ccc(Cl)nc23)c1)N1CCOCC1,IC50,[1],> 10000 nM
same,IC50,[2],> 10000 nM
O=C(c1ccc(-c2ccc3ncnc(Nc4ccc(F)cc4)c3n2)cc1)N1CCNCC1,inhibition,[3],83%
same,IC50,[1],1.1 nM
same,GI50,MOLM-13 [4],7930 nM
same,IC50,[2],26 nM
c1ccc(Nc2ncnc3ccc(-c4ccccc4)nc23)cc1,inhibition,[3],0%
same,IC50,[2],612 nM
O=C(c1cccc(-c2ccc3ncnc(Nc4ccc(F)cc4)c3n2)c1)N1CCNCC1,inhibition,[3],70%
same,GI50,MOLM-13 [4],6050 nM
same,IC50,[2],52 nM
CNC(=O)c1ccc(-c2ccc3ncnc(Nc4ccccc4)c3n2)cc1,inhibition,[3],37%
same,GI50,MOLM-13 [4],1830 nM
same,IC50,[2],58 nM
COc1ccc(Nc2ncnc3ccc(-c4ccc(C(=O)N5CCNCC5)cc4)nc23)cc1,inhibition,[3],7%
same,GI50,MOLM-13 [4],10100 nM
same,IC50,[2],111 nM
Cc1c(C(=O)N2CCNCC2)oc2ccc(Nc3ncnc4ccc(Cl)nc34)cc12,IC50,[1],> 10000 nM
same,IC50,[2],1900 nM
O=C(c1ccc(-c2ccc3ncnc(Nc4cccc(F)c4)c3n2)cc1)N1CCNCC1,inhibition,[3],70%
same,GI50,MOLM-13 [4],3800 nM
same,IC50,[2],33 nM
COC(=O)c1oc2ccc(Nc3ncnc4ccc(Cl)nc34)cc2c1C,IC50,[1],> 10000 nM
same,IC50,[2],4800 nM
O=C(c1cccc(C#Cc2ccccc2Nc2ncnc3ccc(Cl)nc23)c1)N1CCNCC1,IC50,[1],> 10000 nM
same,IC50,[2],5000 nM
COc1cc(F)ccc1Nc1ncnc2ccc(-c3ccc(C(=O)N4CCNCC4)cc3)nc12,inhibition,[3],89%
same,IC50,[1],1.2 nM
same,GI50,MOLM-13 [4],1880 nM
same,IC50,[2],29 nM
O=C(c1cccc(-c2ccc3ncnc(Nc4ccccc4)c3n2)c1)N1CCNCC1,inhibition,[3],57%
same,GI50,MOLM-13 [4],3920 nM
same,IC50,[2],624 nM
CNC(=O)c1cccc(C#Cc2ccccc2Nc2ncnc3ccc(Cl)nc23)c1,IC50,[1],> 10000 nM
same,IC50,[2],4900 nM
Cc1c(C(=O)N(C)C)oc2ccc(Nc3ncnc4ccc(Cl)nc34)cc12,IC50,[1],> 10000 nM
same,IC50,[2],2200 nM
Cc1c(C(=O)N2CCOCC2)oc2ccc(Nc3ncnc4ccc(Cl)nc34)cc12,IC50,[1],> 10000 nM
same,IC50,[2],1800 nM
CN1CCC(CNc2ccc3ncc(-c4cccc(OC(F)(F)F)c4)n3n2)CC1 [SGI-1776],GI50,K562 [5],2190 nM
same,Activity,MOLM-13 [6],Active
same,inhibition,[7],inactive
same,inhibition,[8],Active
same,Activity,MOLM-13 [9],15.68%
same,Activity,MOLM-13 [10],67.94%
same,Activity,MOLM-13 [11],24.57%
same,Activity,MOLM-13 [12],26.08%
same,Activity,MOLM-13 [13],4.05%
same,GI50,MOLM-13 [4],130 nM
same,Activity,MOLM-13 [14],Active
same,Activity,MOLM-13 [15],31.08%
same,Activity,K562 [16],inactive
same,Activity,MOLM-13 [17],Active
same,Activity,K562 [18],inactive
same,Activity,MOLM-13 [19],0.13%
same,Activity,MOLM-13 [20],71.17%
same,Activity,MOLM-13 [21],58.06%
same,Activity,MOLM-13 [22],64.56%
same,Activity,MOLM-13 [23],0.22%
same,GI50,HL-60,1280 nM
same,Activity,MOLM-13 [24],4.23%
same,inhibition,[25],Active
same,Activity,K562 [26],inactive
O=C(c1ccc(-c2ccc3ncnc(Nc4ccccc4F)c3n2)cc1)N1CCNCC1,inhibition,[3],34%
same,GI50,MOLM-13 [4],3080 nM
same,IC50,[2],10 nM
O=C(c1ccc(-c2ccc3ncnc(Nc4ccccc4)c3n2)cc1)N1CCNCC1,inhibition,[3],71%
same,GI50,MOLM-13 [4],3190 nM
same,IC50,[2],36 nM
Cc1ncc2n1-c1ccc(Cl)cc1C(c1ccccc1F)=NC2 [MIDAZOLAM],half-life,[27],2.64 min
same,CLint scaled,[28],219 mL/min/kg
same,CLint scaled,[29],939 mL/min/kg
CNC(=O)c1oc2ccc(Nc3ncnc4ccc(Cl)nc34)cc2c1C,IC50,[1],> 10000 nM
same,IC50,[2],2500 nM
CCCNC(=O)c1cccc(C#Cc2ccccc2Nc2ncnc3ccc(Cl)nc23)c1,IC50,[1],> 10000 nM
same,IC50,[2],3900 nM
N#Cc1ccc(Nc2ncnc3ccc(-c4ccc(C(=O)N5CCNCC5)cc4)nc23)cc1,inhibition,[3],88%
same,IC50,[1],0.15 nM
same,IC50,[2],43 nM
COC(=O)c1cccc(C#Cc2ccccc2Nc2ncnc3ccc(Cl)nc23)c1,IC50,[1],> 10000 nM
same,IC50,[2],4200 nM
